The source of these data is PMC8291583, “Design, synthesis, and evaluation of 3,7-substituted coumarin derivatives as multifunctional Alzheimer’s disease agents” (Journal of Enzyme Inhibition and Medicinal Chemistry, 2021).

“And” between values parts separate entries of the source, which are not always exact repeats. Identical values can stand only once. Like-named read-outs stand apart in the source and are kept apart here. Where only a bound is given, the exact number is not on record here.

Test [1] deals with recombinant human MAO-B (Homo sapiens, UniProt P27338). Kind of test: MAO-B fluorometric assay (kynuramine). The settings on record: for IC50: kynuramine 30 µM, 37 °C, read-out: MAO-B IC50. The class given is biochemical. Here is the method:
. The stock was then further diluted by factors of ten to produce solutions of 1 mM, 100 µM, 10 µM, 1 µM, and 0.1 µM which would correspond to concentrations of 100 µM, 10 µM, 1 µM, 0.1 µM, and 0.01 µM in the final reaction mixture. A potassium phosphate buffer ([…] 100 mM, pH 7.4, 0.9% w/v NaCl) was prepared and refrigerated until further use. The enzyme stock solutions were prepared by dissolving 2.5 mg of enzyme in 33.33 ml of phosphate buffer to produce stock solutions of 0.075 mg/ml which were stored in aliquots at −80 °C until use. […]. The substrate was prepared by dissolving kynuramine in potassium buffer and was prepared as two separate concentrations; […]. The fresh substrate was prepared on the day of the assay. The assay was carried out in 2 ml Eppendorf vials. […] Following this, 25 µl of the enzyme stock were added to each vial in 10 s intervals and the vials were incubated at 37 °C for 10 min. After this time period 15 µl of kynuramine (750 µM for MAO-A and 500 µM for MAO-B) was added at 10 s intervals and further incubated for 20 min. To stop the reaction at the end of this time 150 hx00B5;l of 2 N NaOH was added and the mixture was shaken. Using a micropipette 80 hx00B5;l of the mixture was transferred to a well in a black 96 well plate. The plate was placed in the fluorescent plate reader and read at an excitation/emission wavelength of 310 nm/410 nm. Each assay was run in triplicate and the data were analysed with Graph Pad Prism 8 software (San Diego, USA).
The MAO inhibitory activity of the compounds was assessed using a fluorometric assay with recombinant human MAO-A and human MAO-B enzymes. […].

The test system of test [2] is MPP+-compromised SH-SY5Y neuroblastoma cells. In kind it is cell-based, human. The settings on record: 10 µM compound, 2000 µM MPP+; for MPP+ neuroprotection (difference in percentage cell viability vs MPP+ only treated cells): 2 h pre-treatment, 24 h, SH-SY5Y; for survival rate of MPP+-treated cells: untreated control = 100%. The procedure: SH-SY5Y cells were seeded onto a 96-well plate in a growth medium at a density of 10,000 cells/well. Cells were pre-treated with test compounds at a concentration of 10 µM and thereafter 2000 µM MPP^+ following a 2-h incubation period. Afterwards, cells were incubated for 24 h and MTT colorimetric assay was used to measure cell viability relative to untreated control. To determine the data’s statistical significance, the One-way ANOVA Turkey’s multiple comparison test was conducted on all experimental replicates using GraphPad Prism® 8 (San Diego, USA).
The SH-SY5Y cells were pre-treated with 10 µM of the test compounds for 2 h followed by the addition of 2000 µM of MPP^+.

For test [3], the target named is T1, recombinant human MAO-A (Homo sapiens, UniProt P21397).
T1 sequence (P21397 1-527): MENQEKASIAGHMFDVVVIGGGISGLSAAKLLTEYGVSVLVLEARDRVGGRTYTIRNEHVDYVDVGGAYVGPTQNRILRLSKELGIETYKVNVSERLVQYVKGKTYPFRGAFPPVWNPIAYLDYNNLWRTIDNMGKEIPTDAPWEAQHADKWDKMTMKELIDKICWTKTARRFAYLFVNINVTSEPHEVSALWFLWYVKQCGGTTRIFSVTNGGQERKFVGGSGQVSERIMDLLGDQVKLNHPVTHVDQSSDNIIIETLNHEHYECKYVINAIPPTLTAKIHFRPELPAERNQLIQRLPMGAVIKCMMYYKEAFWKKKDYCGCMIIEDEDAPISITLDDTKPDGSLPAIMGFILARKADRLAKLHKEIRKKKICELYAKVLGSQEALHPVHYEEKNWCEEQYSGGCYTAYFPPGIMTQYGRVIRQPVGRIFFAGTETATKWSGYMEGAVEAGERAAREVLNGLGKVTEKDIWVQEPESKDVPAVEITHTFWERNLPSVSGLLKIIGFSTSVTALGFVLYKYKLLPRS
Description: biochemical. The settings on record: 37 °C. Here is the method:
The stock was then further diluted by factors of ten to produce solutions of 1 mM, 100 µM, 10 µM, 1 µM, and 0.1 µM which would correspond to concentrations of 100 µM, 10 µM, 1 µM, 0.1 µM, and 0.01 µM in the final reaction mixture. A potassium phosphate buffer ([…] 100 mM, pH 7.4, 0.9% w/v NaCl) was prepared and refrigerated until further use. The enzyme stock solutions were prepared by dissolving 2.5 mg of enzyme in 33.33 ml of phosphate buffer to produce stock solutions of 0.075 mg/ml which were stored in aliquots at −80 °C until use. Once in the final reaction mixture, this enzyme solution will have a concentration of 0.0075 mg/ml. […] The fresh substrate was prepared on the day of the assay. The assay was carried out in 2 ml Eppendorf vials. […] Following this, 25 µl of the enzyme stock were added to each vial in 10 s intervals and the vials were incubated at 37 °C for 10 min. […] To stop the reaction at the end of this time 150 hx00B5;l of 2 N NaOH was added and the mixture was shaken. Using a micropipette 80 hx00B5;l of the mixture was transferred to a well in a black 96 well plate. The plate was placed in the fluorescent plate reader and read at an excitation/emission wavelength of 310 nm/410 nm. Each assay was run in triplicate and the data were analysed with Graph Pad Prism 8 software (San Diego, USA).
The MAO inhibitory activity of the compounds was assessed using a fluorometric assay with recombinant human MAO-A and human MAO-B enzymes.

Test [4] addresses T2, BuChE from equine serum (Equus caballus, UniProt P81908).
T2 construct: 12 U/ml BuChE from equine serum; from tissue; host or cells: equine serum
Description: biochemical. The procedure:
Cholinesterase activity is determined using a modified colorimetric method first described by Ellman[40]. […] The stock was then further diluted by factors of ten to produce solutions of 1 mM, 100 µM, 10 µM, 1 µM, and 0.1 µM which corresponds to concentrations of 100 µM, 10 µM, 1 µM, 0.1 µM, and 0.01 µM in the final reaction mixture. The test concentrations were stored in the refrigerator until the day of the assay. Trisma HCl buffer (50 mM, adjusted to pH 8 with 2 N NaOH) was prepared as the buffer and used to prepare enzyme stock solution (22 U/ml for Electrophorus electricus AChE and 12 U/ml BuChE from equine serum), 15 mM acetylthiocholine iodide, 15 mM S-butyrylthiocholine iodide and 1.5 mM DTNB (Ellman’s reagent). The enzyme stock solution was stabilised with 1% bovine serum albumin and stored in aliquots at −80 °C. A clear, flat bottom 96 well plate was used to perform the experiments with each concentration performed in triplicate. Prior to the assay the background absorbance for each compound at the different test concentrations was measured and accounted for when reading the final absorbance. […] Following this, 30 µl of the substrate was added to each well simultaneously using a multi pipette. […] A one-sample t-test was performed on the data to test for statistical significance.

[5] abbreviates: kynuramine 45 µM, read-out: MAO-A IC50.
Setting [6] is: Ellman method, 25 °C, pH 8, read-out: BuChE IC50.

T2 sequence (P81908 whole entry): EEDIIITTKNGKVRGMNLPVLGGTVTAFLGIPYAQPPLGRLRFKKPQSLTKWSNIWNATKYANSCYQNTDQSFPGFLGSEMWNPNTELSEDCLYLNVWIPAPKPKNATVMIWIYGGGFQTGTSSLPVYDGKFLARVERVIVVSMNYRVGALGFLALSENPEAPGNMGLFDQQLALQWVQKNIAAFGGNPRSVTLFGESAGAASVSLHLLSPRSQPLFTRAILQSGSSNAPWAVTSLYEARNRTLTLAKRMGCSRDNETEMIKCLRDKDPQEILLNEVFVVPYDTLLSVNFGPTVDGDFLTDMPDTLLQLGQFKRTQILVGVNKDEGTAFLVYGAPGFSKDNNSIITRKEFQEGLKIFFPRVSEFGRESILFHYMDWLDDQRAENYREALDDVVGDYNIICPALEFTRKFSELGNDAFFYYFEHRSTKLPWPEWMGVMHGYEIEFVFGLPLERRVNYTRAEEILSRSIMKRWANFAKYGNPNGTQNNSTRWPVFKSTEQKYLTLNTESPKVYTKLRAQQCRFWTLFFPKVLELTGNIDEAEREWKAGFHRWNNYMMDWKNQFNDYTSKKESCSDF
recombinant human MAO-B, sequence (P27338 whole entry): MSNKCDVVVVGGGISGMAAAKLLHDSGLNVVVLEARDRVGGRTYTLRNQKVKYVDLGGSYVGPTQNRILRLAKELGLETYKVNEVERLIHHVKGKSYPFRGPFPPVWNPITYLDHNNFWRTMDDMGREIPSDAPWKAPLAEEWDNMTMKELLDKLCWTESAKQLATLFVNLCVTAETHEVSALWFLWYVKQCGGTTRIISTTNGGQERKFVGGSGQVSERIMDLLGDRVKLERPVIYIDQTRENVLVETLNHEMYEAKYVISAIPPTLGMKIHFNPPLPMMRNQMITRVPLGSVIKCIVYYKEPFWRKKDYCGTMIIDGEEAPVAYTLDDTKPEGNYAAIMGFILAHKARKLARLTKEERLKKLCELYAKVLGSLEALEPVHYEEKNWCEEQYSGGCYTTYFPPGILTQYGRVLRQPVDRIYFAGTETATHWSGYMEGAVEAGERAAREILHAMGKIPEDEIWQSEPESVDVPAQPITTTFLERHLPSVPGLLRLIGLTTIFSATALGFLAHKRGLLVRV

In the case of `O=c1oc2cc(OCCc3ccccc3)ccc2cc1CBr` [Compound 4, 3-(bromomethyl)-7-(2-phenylethoxy)-2H-1-benzopyran-2-one], the IC50 in test [1] was over 100000 nM; in test [3] (setting [5]) it was 480 nM and 476 nM; in test [4] (setting [6]) it was over 100000 nM. Also, the “MPP+ neuroprotection (difference in percentage cell viability vs MPP+ only treated cells)” value in test [2] is 22.11%.
`CCN(CC)C(=O)Oc1ccc2cc(CBr)c(=O)oc2c1` [Compound 5, 3-(bromomethyl)-2-oxo-2H-1-benzopyran-7-yl-diethylcarbamate]: in test [1], the “SI MAO-B (MAO-B selectivity index = IC50(MAO-A)/IC50(MAO-B))” value came to 1.05. Also, the half-maximal inhibitory concentration (IC50) is 333 nM in test [1]; 360 nM and 355 nM in test [3] (setting [5]); 23300 nM in test [4] (setting [6]). Besides, in test [2], the “MPP+ neuroprotection (difference in percentage cell viability vs MPP+ only treated cells)” value was found to be 21.86%.
For the molecule `C#CCNCc1cc2ccc(OCCc3ccccc3)cc2oc1=O` [Compound 6, 7-(2-phenylethoxy)-3-{[(prop-2-yn-1-yl)amino]methyl}-2H-1-benzopyran-2-one], the “SI MAO-B (MAO-B selectivity index = IC50(MAO-A)/IC50(MAO-B))” value in test [1] came out at 133.2. In addition, the IC50 in test [1] is 29 nM; in test [3] (setting [5]), 3860 nM; in test [4] (setting [6]), over 100000 nM. In addition, in test [2], the “survival rate of MPP+-treated cells” value was found to be 92%. For the same molecule, in test [2], the “MPP+ neuroprotection (difference in percentage cell viability vs MPP+ only treated cells)” value turned out to be 35.96%.
With `C#CCNCc1cc2ccc(OC(=O)N(CC)CC)cc2oc1=O` [Compound 7, 2-oxo-3-{[(prop-2-yn-1-yl)amino]methyl}-2H-1-benzopyran-7-yl-diethylcarbamate], in test [1], the “SI MAO-B (MAO-B selectivity index = IC50(MAO-A)/IC50(MAO-B))” value was determined as 205.9 and the IC50 is 101 nM. In test [2], the “survival rate of MPP+-treated cells” value stood at 85% and the “MPP+ neuroprotection (difference in percentage cell viability vs MPP+ only treated cells)” value is recorded as 28.19%. The IC50 in test [3] (MAO-A IC50, kynuramine 45 µM) turned out to be 20800 nM. Also, the IC50 in test [4] was over 100000 nM.

In general, IC50 refers to the point on the concentration scale where inhibition reaches its midpoint.
